Series [1] can be described thus: Volume of distribution at steady state in Beagle dog at 1 mg/kg, iv and 2 mg/kg, po. The format is ADME, organism-based, Canis lupus familiaris. To be noted: in vivo, read-out: Vdss.
Series [2] in a line: Metabolic stability in rat liver microsomes assessed as intrinsic clearance at 1 uM after 90 mins. The format is ADME, Microsome.
The test system of series [3] is A2780. Nature of the series: Antiproliferative activity against human A2780 cells after 72 hrs by celltiter-blue cell viability assay. The format is functional. To be noted: A2780, 72 h.
Series [4] can be described thus: Clearance in Beagle dog at 1 mg/kg, iv and 2 mg/kg, po. The conditions noted are these: in vivo. The format is ADME, organism-based, Canis lupus familiaris.
Series [5] in a line: Metabolic stability in human liver microsomes assessed as intrinsic clearance at 1 uM after 90 mins. To be noted: liver microsomes. The format is ADME, Microsome.
A short description of series [6]: Metabolic stability in dog liver microsomes assessed as intrinsic clearance at 1 uM after 90 mins. In kind it is ADME, Canis lupus familiaris, Microsome. To be noted: liver microsomes.
For series [7], the system named is A549. Description: Antiproliferative activity against human P53 expressing A549 cells after 72 hrs by celltiter-blue cell viability assay. In kind it is functional. To be noted: A549, 72 h.
For series [8], the target named is Histone deacetylase 5 (Homo sapiens, UniProt Q9UQL6). Description: Inhibition of wild type His-tagged HDAC5 catalytic domain T678-L1122 expressed in Escherichia coli.
Sequence of Histone deacetylase 5 (Q9UQL6 whole entry, the tested form may be a part): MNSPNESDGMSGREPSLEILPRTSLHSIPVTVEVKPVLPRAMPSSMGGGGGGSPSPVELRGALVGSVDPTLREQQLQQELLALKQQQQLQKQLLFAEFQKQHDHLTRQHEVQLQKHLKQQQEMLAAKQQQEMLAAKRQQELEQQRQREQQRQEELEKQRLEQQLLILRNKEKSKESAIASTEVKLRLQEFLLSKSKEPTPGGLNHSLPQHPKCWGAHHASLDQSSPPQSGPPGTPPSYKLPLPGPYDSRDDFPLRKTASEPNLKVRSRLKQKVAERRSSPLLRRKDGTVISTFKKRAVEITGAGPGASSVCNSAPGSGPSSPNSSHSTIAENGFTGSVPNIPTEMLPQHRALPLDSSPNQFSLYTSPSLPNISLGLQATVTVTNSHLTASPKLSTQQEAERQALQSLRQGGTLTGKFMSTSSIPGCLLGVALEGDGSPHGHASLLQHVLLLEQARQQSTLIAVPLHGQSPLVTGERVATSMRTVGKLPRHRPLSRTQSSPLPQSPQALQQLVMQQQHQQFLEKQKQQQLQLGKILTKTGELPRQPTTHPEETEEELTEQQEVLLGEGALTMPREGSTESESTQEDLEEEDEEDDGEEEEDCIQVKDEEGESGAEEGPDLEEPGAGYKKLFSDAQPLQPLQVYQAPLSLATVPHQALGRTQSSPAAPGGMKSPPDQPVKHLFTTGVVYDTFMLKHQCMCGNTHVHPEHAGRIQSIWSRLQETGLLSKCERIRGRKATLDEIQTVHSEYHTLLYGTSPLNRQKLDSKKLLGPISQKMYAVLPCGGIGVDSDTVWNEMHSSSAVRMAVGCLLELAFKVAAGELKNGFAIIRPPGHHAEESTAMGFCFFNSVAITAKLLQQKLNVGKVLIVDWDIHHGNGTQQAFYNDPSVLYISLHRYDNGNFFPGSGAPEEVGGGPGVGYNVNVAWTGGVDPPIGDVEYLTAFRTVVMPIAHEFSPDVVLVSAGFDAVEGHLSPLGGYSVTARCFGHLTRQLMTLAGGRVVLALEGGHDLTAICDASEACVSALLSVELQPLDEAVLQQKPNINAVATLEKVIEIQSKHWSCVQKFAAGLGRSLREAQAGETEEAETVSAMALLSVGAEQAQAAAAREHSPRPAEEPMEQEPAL
Series [9] is described as follows: Clearance in Sprague-Dawley rat plasma at 3 mg/kg, iv and 3 mg/kg, po. The format is ADME, organism-based.
For series [10], the target named is T1, Cytochrome P450 3A4 (Homo sapiens, UniProt P08684). Description: Induction of CYP3A4. The format is ADME.
T1 sequence (P08684 whole entry): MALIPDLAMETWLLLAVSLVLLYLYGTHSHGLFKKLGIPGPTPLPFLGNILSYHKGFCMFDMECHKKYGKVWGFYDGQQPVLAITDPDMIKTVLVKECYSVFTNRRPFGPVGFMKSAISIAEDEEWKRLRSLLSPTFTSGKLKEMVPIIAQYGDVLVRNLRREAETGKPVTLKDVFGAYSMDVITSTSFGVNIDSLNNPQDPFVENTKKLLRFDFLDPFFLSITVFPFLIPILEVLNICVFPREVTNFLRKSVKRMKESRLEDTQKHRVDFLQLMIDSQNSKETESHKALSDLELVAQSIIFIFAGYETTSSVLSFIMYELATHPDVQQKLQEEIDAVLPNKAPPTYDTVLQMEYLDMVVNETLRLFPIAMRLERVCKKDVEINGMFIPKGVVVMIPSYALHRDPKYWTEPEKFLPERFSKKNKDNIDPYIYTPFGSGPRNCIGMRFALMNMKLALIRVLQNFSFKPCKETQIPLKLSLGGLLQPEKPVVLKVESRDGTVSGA
Series [11] has as its system MCF7. Description: Antiproliferative activity against human MCF7 cells after 72 hrs by celltiter-blue cell viability assay. In kind it is functional. To be noted: Homo sapiens, MCF7, 72 h.
Series [12] relates to Mus musculus. Description: Toxicity in BALB/c nu/nu mouse assessed as body weight loss at 10 mg/kg, ip administered once daily for 5 days per week. The format is organism-based. Details: dose 10 mg/kg, route intraperitoneal; call rule not given here. The conditions noted are these: in vivo, 120 h.
The target of series [13] is Cytochrome P450 2C9 (Homo sapiens, UniProt P11712). Nature of the series: Inhibition of CYP2C9. In kind it is ADME.
Sequence of Cytochrome P450 2C9 (P11712 whole entry): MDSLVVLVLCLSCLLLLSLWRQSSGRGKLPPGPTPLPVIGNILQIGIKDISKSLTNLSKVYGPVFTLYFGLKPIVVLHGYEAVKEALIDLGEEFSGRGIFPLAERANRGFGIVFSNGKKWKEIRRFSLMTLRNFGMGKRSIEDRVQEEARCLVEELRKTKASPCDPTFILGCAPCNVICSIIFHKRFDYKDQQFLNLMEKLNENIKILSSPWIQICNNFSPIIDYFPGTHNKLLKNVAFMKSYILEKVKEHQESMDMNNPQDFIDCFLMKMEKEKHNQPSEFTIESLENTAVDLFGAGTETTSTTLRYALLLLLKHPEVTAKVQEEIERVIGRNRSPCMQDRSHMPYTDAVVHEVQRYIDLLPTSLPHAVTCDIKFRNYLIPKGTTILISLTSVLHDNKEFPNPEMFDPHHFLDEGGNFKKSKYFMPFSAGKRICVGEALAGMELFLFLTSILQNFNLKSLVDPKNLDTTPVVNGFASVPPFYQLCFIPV
Series [14] deals with T1, Cytochrome P450 3A4. Description: Inhibition of CYP3A4. The format is ADME.
Series [15] is described as follows: Oral bioavailability in Sprague-Dawley rat at 3 mg/kg. The format is ADME, organism-based. The conditions noted are these: in vivo.
In series [16] the test system is Mus musculus. Nature of the series: Toxicity in BALB/c nu/nu mouse assessed as adverse effect at 10 mg/kg, ip administered once daily for 5 days per week. The format is organism-based. Details: dose 10 mg/kg, route intraperitoneal. To be noted: in vivo, 120 h.
Series [17] can be described thus: Plasma concentration in Beagle dog at 2 mg/kg, po after 24 hrs. Details: dose 2 mg/kg, route oral. The format is ADME, organism-based, Canis lupus familiaris.
The nature of series [18]: Toxicity in ip dosed BALB/c nu/nu mouse assessed as maximum tolerated dose. The format is organism-based. The conditions noted are these: in vivo.
Series [19] concerns U-937. Description: Antiproliferative activity against human U937 cells after 72 hrs by celltiter-blue cell viability assay. In kind it is functional. To be noted: U-937, 72 h.
Series [20] addresses T2, Protein deacetylase HDAC6 (Homo sapiens, UniProt Q9UBN7).
T2 sequence (Q9UBN7 whole entry): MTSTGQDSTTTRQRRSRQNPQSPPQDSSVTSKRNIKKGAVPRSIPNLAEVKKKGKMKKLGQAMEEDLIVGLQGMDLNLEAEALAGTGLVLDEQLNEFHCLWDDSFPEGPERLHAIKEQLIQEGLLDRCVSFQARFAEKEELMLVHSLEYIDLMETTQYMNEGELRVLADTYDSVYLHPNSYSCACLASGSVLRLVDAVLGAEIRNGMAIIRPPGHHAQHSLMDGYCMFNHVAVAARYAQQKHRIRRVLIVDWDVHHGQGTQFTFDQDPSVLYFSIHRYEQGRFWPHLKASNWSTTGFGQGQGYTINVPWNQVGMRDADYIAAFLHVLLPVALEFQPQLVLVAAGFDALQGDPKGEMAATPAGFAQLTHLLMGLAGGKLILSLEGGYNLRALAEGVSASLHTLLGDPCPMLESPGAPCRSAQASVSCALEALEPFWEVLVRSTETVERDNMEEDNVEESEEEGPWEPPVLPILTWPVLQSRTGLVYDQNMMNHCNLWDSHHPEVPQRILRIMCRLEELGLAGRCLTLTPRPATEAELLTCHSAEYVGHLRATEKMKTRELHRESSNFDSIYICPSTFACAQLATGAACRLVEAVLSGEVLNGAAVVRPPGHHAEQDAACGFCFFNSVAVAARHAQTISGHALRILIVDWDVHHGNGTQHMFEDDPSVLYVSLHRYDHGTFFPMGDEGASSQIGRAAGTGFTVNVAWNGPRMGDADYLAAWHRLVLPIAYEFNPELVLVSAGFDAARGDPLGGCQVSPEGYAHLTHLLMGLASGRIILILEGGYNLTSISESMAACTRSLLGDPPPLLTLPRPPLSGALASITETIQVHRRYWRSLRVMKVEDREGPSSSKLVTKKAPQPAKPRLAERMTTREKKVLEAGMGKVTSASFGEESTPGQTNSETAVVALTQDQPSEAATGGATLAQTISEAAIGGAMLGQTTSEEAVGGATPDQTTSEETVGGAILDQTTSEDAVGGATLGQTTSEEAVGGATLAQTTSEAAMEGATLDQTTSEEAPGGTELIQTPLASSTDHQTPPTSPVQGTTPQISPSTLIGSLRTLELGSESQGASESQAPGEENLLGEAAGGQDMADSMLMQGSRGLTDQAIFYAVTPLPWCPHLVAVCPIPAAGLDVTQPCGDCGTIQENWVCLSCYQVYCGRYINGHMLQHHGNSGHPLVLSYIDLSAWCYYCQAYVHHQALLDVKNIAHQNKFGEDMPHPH
Description: Inhibition of C-terminal FLAG-tagged HDAC6 expressed in mammalian cells

Series [21] relates to G-401. Nature of the series: Antiproliferative activity against human G401 cells after 72 hrs by celltiter-blue cell viability assay. The format is functional. The conditions noted are these: Homo sapiens, G-401, 72 h.
A short description of series [22]: Solubility in buffered aqueous solution at pH 4.1. The format is physicochemical.

Converted amounts (≈) assume the structure as drawn.

On to `CCC(=O)CCCCC[C@H](NC(=O)C1CN(C)C1)c1ncc(-c2cc3ccccc3nc2OC)[nH]1`, for which the Vd in [1] was determined as 3.5 L/kg. Also, the microsomal CLint at 1 µM was 29 µL/min/mg in series [2], 31 µL/min/mg in series [5] and 29 µL/min/mg in [6]. The 50% cytotoxic concentration (CC50) in series [3] is 740 nM; in series [7] it was 490 nM; in [11], 750 nM; in series [19], 240 nM; in series [21], 370 nM. In addition, the clearance in series [4] was 4 mL/min/kg; in series [9] it was 19 mL/min/kg. The IC50 in [8] is more than 10000 nM; in series [13], 5500 nM; in series [20], 680000 nM. For the same compound, the Activity entry is on record as “Not Active” in series [10], “Non-toxic” in [12], “Not Active” in [14] and “Non-toxic” in series [16]. This compound also returned a bioavailability in series [15] of 73%. The concentration at 24 h in series [17] is more than 100 nM. For the same compound, the maximum tolerated dose (MTD) in [18] was 10 mg/kg. The solubility in series [22] is 13 mg/mL (≈ 27.2 mM).

The record behind these values is ChEMBL document CHEMBL1136937, “Discovery of a potent class I selective ketone histone deacetylase inhibitor with antitumor activity in vivo and optimized pharmacokinetic properties” (J Med Chem, 2009).
